This passage reports IC50 results from patent publication US20260193238A1, “PHARMACEUTICAL COMPOUNDS AS PARP7 AND/OR PARP1 INHIBITORS” (Duke Street Bio Limited, priority 2022, published 2026).

By IC50 is commonly meant the point on the concentration scale where inhibition reaches its midpoint.

This test addresses PARP1 (Homo sapiens, UniProt P09874). The test is described as follows: PARP1 biochemical DELFIA assay (auto-PARylation).

PARP1, sequence (P09874 whole entry): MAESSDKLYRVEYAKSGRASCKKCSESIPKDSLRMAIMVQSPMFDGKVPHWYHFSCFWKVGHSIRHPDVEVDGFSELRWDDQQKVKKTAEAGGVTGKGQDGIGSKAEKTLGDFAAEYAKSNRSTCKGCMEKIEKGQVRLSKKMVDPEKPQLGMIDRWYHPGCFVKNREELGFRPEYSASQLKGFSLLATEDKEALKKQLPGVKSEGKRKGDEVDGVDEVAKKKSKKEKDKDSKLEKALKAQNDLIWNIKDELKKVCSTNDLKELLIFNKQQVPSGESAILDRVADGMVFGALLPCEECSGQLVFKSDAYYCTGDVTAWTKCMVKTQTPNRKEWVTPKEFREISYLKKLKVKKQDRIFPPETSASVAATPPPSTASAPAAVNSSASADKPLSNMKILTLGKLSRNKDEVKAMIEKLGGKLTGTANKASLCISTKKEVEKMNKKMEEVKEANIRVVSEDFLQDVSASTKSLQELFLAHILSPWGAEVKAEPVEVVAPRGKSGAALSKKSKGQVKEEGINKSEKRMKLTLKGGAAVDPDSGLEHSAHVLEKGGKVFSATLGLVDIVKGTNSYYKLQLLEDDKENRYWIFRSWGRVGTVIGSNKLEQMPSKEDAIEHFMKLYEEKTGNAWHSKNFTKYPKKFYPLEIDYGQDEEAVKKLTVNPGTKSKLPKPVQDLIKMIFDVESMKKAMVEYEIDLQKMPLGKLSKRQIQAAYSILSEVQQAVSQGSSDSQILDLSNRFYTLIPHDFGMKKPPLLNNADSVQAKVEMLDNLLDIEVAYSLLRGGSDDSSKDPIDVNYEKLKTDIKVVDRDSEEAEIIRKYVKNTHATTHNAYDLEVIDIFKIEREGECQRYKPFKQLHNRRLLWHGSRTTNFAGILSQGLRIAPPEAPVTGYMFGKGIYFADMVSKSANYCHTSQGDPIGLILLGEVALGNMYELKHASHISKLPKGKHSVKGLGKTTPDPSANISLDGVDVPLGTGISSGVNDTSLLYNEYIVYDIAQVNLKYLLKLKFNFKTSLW
Method: Prior to assay, wells were washed 3×5 min in coating wash buffer.
% data was fitted to a non-linear regression equation (log inhibitor vs response-variable slope 4-parameters) to obtain IC50 values.

Regarding `N#Cc1cc(C2CCCN2CC(=O)N2CC(Nc3ncc(C(F)(F)F)cn3)C2)n[nH]c1=O` (single isomer, unassigned) [Compound 123a], the IC50 (Table 1A) was in the range of 10 to 100 nM.

In the case of `O=C(CN1CCCC1c1cc(C(F)(F)F)c(=O)[nH]n1)N1CCN(c2nc3cc(Cl)ccc3o2)CC1` (single isomer, unassigned) [Compound 99b], the half-maximal inhibitory concentration (IC50) (Table 1A) fell in the range of 1000 to 10000 nM.

`O=C(CN1CCCC1c1cc(C(F)(F)F)c(=O)[nH]n1)N1CCN(c2ncc(F)cn2)CC1` (single isomer, unassigned) [Compound 43a] gave a concentration for half-maximal inhibition (IC50) (Table 1A) of 10 to 100 nM.

Where the note is “Table 1A”, `CNC(=O)c1ccc(N2CCN(C(=O)CN3CCC(c4cc(C(F)(F)F)c(=O)[nH]n4)CC3)CC2)cn1` [Compound 64] returned an IC50 of 100 to 1000 nM.

Consider `CNC(=O)c1ccc(N2CCN(C(=O)CN3CCCC3c3cc(C(F)(F)F)c(=O)[nH]n3)CC2)cn1` (single isomer, unassigned) [Compound 37b], for which the IC50 (Table 1A) was in the range of 1000 to 10000 nM.

`CNC(=O)c1ccc(N2CCN(C(=O)CCN3CCC(c4n[nH]c(=O)c5ccccc45)CC3)CC2)cn1` [Compound 48, N-methyl-5-(4-(3-(4-(4-oxo-3,4-dihydrophthalazin-1-yl)piperidin-1-yl)propanoyl)piperazin-1-yl)picolinamide] showed an IC50 (Table 1A) not above 10 nM.

Take `O=C(CN1CCN(c2ncc(C(F)(F)F)cn2)CC1)N1CCCC1c1cc(C(F)(F)F)c(=O)[nH]n1` (single isomer, unassigned) [Compound 32a]: where the note is “Table 1”, the IC50 lay within 100 to 1000 nM.

For `CC(C)(C)c1cnc(N2CCN(C(=O)CN3CCCC3c3cc(C(F)(F)F)c(=O)[nH]n3)CC2)nc1` (single isomer, unassigned) [Compound 82a], the IC50 (Table 1A) lay in the range of 10 to 100 nM.

`O=C(CCN1CCCC1c1cc(C(F)(F)F)c(=O)[nH]n1)N1CCN(c2ncc(C(F)(F)F)cn2)CC1` (single isomer, unassigned) [Compound 18b, 6-(1-(3-oxo-3-(4-(5-(trifluoromethyl)pyrimidin-2-yl)piperazin-1-yl)propyl)pyrrolidin-2-yl)-4-(trifluoromethyl)pyridazin-3(2H)-one] showed an IC50 (Table 1) of 10 to 100 nM.

As for `CNC(=O)c1ccc(N2CCN(C(=O)CCN3CCCC(c4cc(C(F)(F)F)c(=O)[nH]n4)C3)CC2)nc1` (single isomer, unassigned) [Compound 28b], the IC50 (Table 1) lay within 100 to 1000 nM.

Where the note is “Table 1A”, `N#Cc1cc(C2CCCN2CC(=O)N2CCN(c3nc4cc(F)ccc4o3)CC2)n[nH]c1=O` (single isomer, unassigned) [Compound 149a] showed a concentration for half-maximal inhibition (IC50) of 10 to 100 nM.

Under “Table 1A”, `O=C(CN1CCCC1c1c[nH]c(=O)c(C(F)(F)F)c1)N1CCN(c2ncc(Cl)cn2)CC1` (single isomer, unassigned) [Compound 74a] came in with an IC50 of 10 to 100 nM.

Regarding `CCc1cc(C2CCCN2CC(=O)N2CCN(c3ncc(C(F)(F)F)cn3)CC2)n[nH]c1=O` (single isomer, unassigned) [Compound 40a], under “Table 1A”, the IC50 is 10 to 100 nM.

Under “Table 1A”, `CC1(C)CC(c2cc(C(F)(F)F)c(=O)[nH]n2)CN(CCC(=O)N2CCN(c3ncc(C(F)(F)F)cn3)CC2)C1` (single isomer, unassigned) [Compound 87b] came in with an IC50 of 10 to 100 nM.

In the case of `COC1CC(c2cc(C(F)(F)F)c(=O)[nH]n2)N(CC(=O)N2CCN(c3ncc(C(F)(F)F)cn3)CC2)C1` (single isomer, unassigned) [Compound 138trans1, 6-(4-methoxy-1-(2-oxo-2-(4-(5-(trifluoromethyl)pyrimidin-2-yl)piperazin-1-yl)ethyl)pyrrolidin-2-yl)-4-(trifluoromethyl)pyridazin-3(2H)-one], the IC50 (Table 1A) is 100 to 1000 nM.

`O=C(CN1CCCC1c1cc(C(F)(F)F)c(=O)[nH]n1)N1CCN(c2ncc(C(F)(F)F)s2)CC1` (racemic) [Compound 52rac] registered an IC50 (Table 1A) not above 10 nM.

As to `CNC(=O)c1ccc(N2CCN(C(=O)CN3CCC(c4n[nH]c(=O)c5ccccc45)CC3)CC2)cn1` [Compound 50], for the setting “Table 1A”, the IC50 fell in the range of 10 to 100 nM.

In the case of `O=C(CN1CCCC1c1c[nH]c(=O)c(C(F)(F)F)c1)N1CCN(c2ncc(Cl)cn2)CC1` (single isomer, unassigned) [Compound 74b], the IC50 (Table 1A) lay within 1000 to 10000 nM.

For the setting “Table 1A”, `O=C(CN1CCOCC1c1cc(C(F)(F)F)c(=O)[nH]n1)N1CCN(c2ncc(C(F)(F)F)cn2)CC1` (single isomer, unassigned) [Compound 88a] returned an IC50 of 100 to 1000 nM.

Compound `O=C(CN1CCCC1c1cc(C(F)(F)F)c(=O)[nH]n1)N1CC2(C1)CN(c1ncc(C(F)(F)F)cn1)C2` (single isomer, unassigned) [Compound 106b] yielded an IC50 (Table 1A) of 1000 to 10000 nM.

On to `O=C(CN1CCCC1c1c[nH]c(=O)c(C(F)(F)F)c1)N1CCN(c2ncc(C(F)(F)F)cn2)CC1` (single isomer, unassigned) [Compound 60b, 5-(1-(2-oxo-2-(4-(5-(trifluoromethyl)pyrimidin-2-yl)piperazin-1-yl)ethyl)pyrrolidin-2-yl)-3-(trifluoromethyl)pyridin-2(1H)-one], for which the IC50 (Table 1A) lay within 100 to 1000 nM.

In turn, `O=C(CN1CCCC1c1cc(C(F)(F)F)c(=O)[nH]n1)N1CCN(c2ncc(C(F)(F)F)cn2)CC1` (single isomer, unassigned) [Compound 24a, 6-(1-(2-oxo-2-(4-(5-(trifluoromethyl)pyrimidin-2-yl)piperazin-1-yl)ethyl)pyrrolidin-2-yl)-4-(trifluoromethyl)pyridazin-3(2H)-one] displayed an IC50 (Table 1) of 1000 to 10000 nM.

The compound `O=C(CN1CCCC1c1cc(C(F)(F)F)c(=O)[nH]n1)C1CCN(c2ncc(C(F)(F)F)cn2)CC1` (single isomer, unassigned) [Compound 75b] had an IC50 (Table 1A) of more than 10000 nM.

Where the note is “Table 1A”, `O=C(CN1CCCC1c1cc(C(F)(F)F)c(=O)[nH]n1)N1CCN(c2ncc(F)cc2F)CC1` (single isomer, unassigned) [Compound 83b] had an IC50 of more than 10000 nM.

In turn, `N#Cc1ccc(N2CCN(C(=O)CN3CCCC3c3cc(C(F)(F)F)c(=O)[nH]n3)CC2)nc1` (racemic) [Compound 47rac] registered an IC50 (Table 1A) of 10 to 100 nM.

`O=C(CN1CC(F)(F)C[C@@H]1c1cc(C(F)(F)F)c(=O)[nH]n1)N1CCN(c2ncc(C(F)(F)F)cn2)CC1` [Compound 91a, (R)-6-(4,4-difluoro-1-(2-oxo-2-(4-(5-(trifluoromethyl)pyrimidin-2-yl)piperazin-1-yl)ethyl)pyrrolidin-2-yl)-4-(trifluoromethyl)pyridazin-3(2H)-one]: the IC50 (Table 1A) lay in the range of 100 to 1000 nM.

As to `O=C(CN1CCCC1c1cc(C(F)(F)F)c(=O)[nH]n1)N1CCN(c2ncc(F)cc2Cl)CC1` (single isomer, unassigned) [Compound 116b], the IC50 (Table 1A) was 1000 to 10000 nM.

On to `O=C(CN1CCCC1c1cc(Cl)c(=O)[nH]n1)N1CCN(c2ncc(C(F)(F)F)cn2)CC1` (racemic) [Compound 68rac, 4-chloro-6-(1-(2-oxo-2-(4-(5-(trifluoromethyl)pyrimidin-2-yl)piperazin-1-yl)ethyl)pyrrolidin-2-yl)pyridazin-3(2H)-one], for which, where the note is “Table 1A”, the IC50 lay within 100 to 1000 nM.

For the compound `O=C(CN1Cc2ccccc2C1c1cc(C(F)(F)F)c(=O)[nH]n1)N1CC(Oc2ncc(C(F)(F)F)cn2)C1` (single isomer, unassigned) [Compound 114b], where the note is “Table 1A”, the half-maximal inhibitory concentration (IC50) was in the range of 1000 to 10000 nM.

Under “Table 1A”, `O=C(CN1CCCC1c1c[nH]c(=O)c(C(F)(F)F)n1)N1CCN(c2ncc(C(F)(F)F)cn2)CC1` (single isomer, unassigned) [Compound 84a, 5-(1-(2-oxo-2-(4-(5-(trifluoromethyl)pyrimidin-2-yl)piperazin-1-yl)ethyl)pyrrolidin-2-yl)-3-(trifluoromethyl)pyrazin-2(1H)-one] registered an IC50 of 1000 to 10000 nM.

As for `O=C(CN1CCCC1c1cc(C(F)(F)F)c(=O)[nH]n1)N1CCN(c2ccc(Cl)cn2)CC1` (single isomer, unassigned) [Compound 41b], for the setting “Table 1A”, the IC50 lay in the range of 1000 to 10000 nM.

Take `O=C(CN1CCCC1c1cc(C(F)(F)F)c(=O)[nH]n1)N1CCN(c2nc3ccc(Cl)cc3o2)CC1` (single isomer, unassigned) [Compound 85a]: under “Table 1A”, the IC50 was not above 10 nM.

Under “Table 1A”, `CC1(C)C[C@H](c2cc(C(F)(F)F)c(=O)[nH]n2)N(CC(=O)N2CCN(c3ncc(C(F)(F)F)cn3)CC2)C1` [Compound 94a] gave an IC50 of 10 to 100 nM.

Regarding `N#Cc1cc(C2CCCN2CC(=O)N2CCN(c3nc4ccc(F)cc4o3)CC2)n[nH]c1=O` (single isomer, unassigned) [Compound 111a], under “Table 1A”, the IC50 was 10 to 100 nM.

As to `N#Cc1[nH]c(=O)c(C(F)(F)F)cc1C1CCCN1CC(=O)N1CCN(c2ncc(C(F)(F)F)cn2)CC1` (racemic) [Compound 115rac], the concentration for half-maximal inhibition (IC50) (Table 1A) was more than 10000 nM.

`CC(C)(C)c1cnc(N2CCN(C(=O)CN3CCCC3c3cc(C(F)(F)F)c(=O)[nH]n3)CC2)nc1` (single isomer, unassigned) [Compound 82b]: where the note is “Table 1A”, the IC50 is 1000 to 10000 nM.

For `N#Cc1ccc(N2CCN(C(=O)CCN3CCCC(c4cc(C(F)(F)F)c(=O)[nH]n4)C3)CC2)nc1` (single isomer, unassigned) [Compound 11b], for the setting “Table 1”, the IC50 was in the range of 100 to 1000 nM.

Where the note is “Table 1A”, `O=C(CN1CCCC1c1cc(C(F)(F)F)c(=O)[nH]n1)N1CCN(c2ncc(OC(F)F)cn2)CC1` (single isomer, unassigned) [Compound 118b] displayed an IC50 of 1000 to 10000 nM.

`CNC(=O)c1ccc(N2CCN(C(=O)CCN3CCCC(c4cc(C(F)(F)F)c(=O)[nH]n4)C3)CC2)nc1` (single isomer, unassigned) [Compound 28a] had a half-maximal inhibitory concentration (IC50) (Table 1) of 100 to 1000 nM.

In turn, `O=C(CN1CCCC1c1cc(C(F)(F)F)c(=O)[nH]n1)N1CCN(c2ccc(C(F)F)cn2)CC1` (single isomer, unassigned) [Compound 126a] displayed an IC50 (Table 1A) of 10 to 100 nM.

Regarding `CCc1cc(C2CCCN2CC(=O)N2CCN(c3ncc(C(F)(F)F)cn3)CC2)c[nH]c1=O` (single isomer, unassigned) [Compound 57b], the IC50 (Table 1A) is 1000 to 10000 nM.

The compound `N#Cc1cc(F)cnc1N1CCN(C(=O)CN2CCCC2c2cc(C(F)(F)F)c(=O)[nH]n2)CC1` (single isomer, unassigned) [Compound 146a] yielded an IC50 (Table 1A) of 100 to 1000 nM.

As to `O=C(CCN1CCCC(c2c[nH]c(=O)c(C(F)(F)F)c2)C1)N1CCN(c2ncc(C(F)(F)F)cn2)CC1` (single isomer, unassigned) [Compound 25b], where the note is “Table 1”, the IC50 is 10 to 100 nM.

`O=C(CN1CCCC1c1c[nH]c(=O)c(C(F)(F)F)c1)N1CCN(c2ncc(C(F)(F)F)cn2)CC1` (racemic) [Compound 60rac, 5-(1-(2-oxo-2-(4-(5-(trifluoromethyl)pyrimidin-2-yl)piperazin-1-yl)ethyl)pyrrolidin-2-yl)-3-(trifluoromethyl)pyridin-2(1H)-one] had an IC50 (Table 1A) of 100 to 1000 nM.
